Reference: the supplement of paper PMC10307832

Key:
Assay in all cases: relative viability (nuclei count vs DMSO), 5 days (fraction); higher = more cells survive
HCC-15 = tested on: HCC-15
Outline: (§1)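 Lung cancer cell lines, seeded in 1536-well plates, were treated the following day by pin tool with a single drug or with five library-drug doses (not always all listed) in √10 steps on top of a fixed anchor-drug dose. Cells were fixed and nuclei stained in one step after 5 days, and nuclei were counted. Relative viability is the nuclei count for treated wells divided by that for vehicle wells, reported as medians of duplicate plates.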

NCI-H1793 = tested on: NCI-H1793
Outline: as §1

EKVX = tested on: EKVX
Outline: as §1

SW 900 = tested on: SW 900
Outline: as §1

H3255 = tested on: H3255
Outline: as §1

NCI-H522 = tested on: NCI-H522
Outline: as §1

NCI-H322M = tested on: NCI-H322M
Outline: as §1

ChaGo-K-1 = tested on: ChaGo-K-1
Outline: as §1

LC-2-ad = tested on: LC-2-ad
Outline: as §1

NCI-H1792 = tested on: NCI-H1792
Outline: as §1

EMC-BAC-2 = tested on: EMC-BAC-2
Outline: as §1

NCI-H1993 = tested on: NCI-H1993
Outline: as §1

NCI-H1915 = tested on: NCI-H1915
Outline: as §1

HCC-827 = tested on: HCC-827
Outline: as §1

PC-14 = tested on: PC-14
Outline: as §1

LCLC-97TM1 = tested on: LCLC-97TM1
Outline: as §1

NCI-H23 = tested on: NCI-H23
Outline: as §1

NCI-H661 = tested on: NCI-H661
Outline: as §1

NCI-H1944 = tested on: NCI-H1944
Outline: as §1

NCI-H460 = tested on: NCI-H460
Outline: as §1

SK-LU-1 = tested on: SK-LU-1
Outline: as §1

EPLC-272H = tested on: EPLC-272H
Outline: as §1

Work on `COCC1(CO)C(=O)C2CCN1CC2` (configuration not stated) [PRIMA-1MET] + COc1cccc2cc(-c3nc([C@H]4CC[C@H](C(=O)O)CC4)n4ncnc(N)c34)[nH]c12 [OSI-027] (partner 0.5 µM) yielded a relative viability (HCC-15; first compound 0.2 µM) of 0.534, a relative viability (HCC-15; first compound 0.6325 µM) of 0.616 and a relative viability (HCC-15; first compound 2 µM) of 0.526. For the same molecule, the relative viability (HCC-15; first compound 6.325 µM) was 0.559, the relative viability (HCC-15; first compound 20 µM) was 0.439 and the relative viability (NCI-H1793; first compound 0.2 µM) was 0.255. For the same molecule, the relative viability (NCI-H1793; first compound 0.6325 µM) was 0.221, the relative viability (NCI-H1793; first compound 6.325 µM) was 0.298 and the relative viability (NCI-H1793; first compound 20 µM) was 0.276. It also gave a relative viability (EKVX; first compound 0.2 µM) of 0.915, a relative viability (EKVX; first compound 0.6325 µM) of 0.723 and a relative viability (EKVX; first compound 6.325 µM) of 0.78. It also gave a relative viability (EKVX; first compound 20 µM) of 0.695, a relative viability (SW 900; first compound 0.2 µM) of 0.54 and a relative viability (SW 900; first compound 0.6325 µM) of 0.451. The relative viability (SW 900; first compound 2 µM) was 0.471, the relative viability (SW 900; first compound 6.325 µM) was 0.362 and the relative viability (SW 900; first compound 20 µM) was 0.0628. For the same molecule, the relative viability (H3255; first compound 0.2 µM) was 0.642, the relative viability (H3255; first compound 0.6325 µM) was 0.629 and the relative viability (H3255; first compound 2 µM) was 0.562. The relative viability (H3255; first compound 6.325 µM) was 0.658, the relative viability (H3255; first compound 20 µM) was 0.498 and the relative viability (NCI-H522; first compound 0.2 µM) was 0.647. The relative viability (NCI-H522; first compound 0.6325 µM) was 0.671, the relative viability (NCI-H522; first compound 2 µM) was 0.596 and the relative viability (NCI-H522; first compound 6.325 µM) was 0.836. It also gave a relative viability (NCI-H522; first compound 20 µM) of 0.13, a relative viability (NCI-H322M; first compound 0.2 µM) of 0.494 and a relative viability (NCI-H322M; first compound 0.6325 µM) of 0.289. For the same molecule, the relative viability (NCI-H322M; first compound 6.325 µM) was 0.57, the relative viability (NCI-H322M; first compound 20 µM) was 0.13 and the relative viability (ChaGo-K-1; first compound 0.2 µM) was 0.581. For the same molecule, the relative viability (ChaGo-K-1; first compound 0.6325 µM) was 0.518, the relative viability (ChaGo-K-1; first compound 2 µM) was 0.522 and the relative viability (ChaGo-K-1; first compound 6.325 µM) was 0.53. The relative viability (ChaGo-K-1; first compound 20 µM) was 0.448, the relative viability (LC-2-ad; first compound 0.2 µM) was 0.854 and the relative viability (LC-2-ad; first compound 2 µM) was 0.729. It also gave a relative viability (LC-2-ad; first compound 6.325 µM) of 0.898, a relative viability (LC-2-ad; first compound 20 µM) of 0.819 and a relative viability (NCI-H1792; first compound 0.2 µM) of 0.683. For the same molecule, the relative viability (NCI-H1792; first compound 0.6325 µM) was 0.693, the relative viability (NCI-H1792; first compound 2 µM) was 0.635 and the relative viability (NCI-H1792; first compound 6.325 µM) was 0.734. It also gave a relative viability (NCI-H1792; first compound 20 µM) of 0.802, a relative viability (EMC-BAC-2; first compound 0.2 µM) of 0.509 and a relative viability (EMC-BAC-2; first compound 0.6325 µM) of 0.385. It also gave a relative viability (EMC-BAC-2; first compound 6.325 µM) of 0.366, a relative viability (EMC-BAC-2; first compound 20 µM) of 0.322 and a relative viability (NCI-H1993; first compound 0.2 µM) of 0.569. It also gave a relative viability (NCI-H1993; first compound 0.6325 µM) of 0.561, a relative viability (NCI-H1993; first compound 2 µM) of 0.518 and a relative viability (NCI-H1993; first compound 6.325 µM) of 0.532. For the same molecule, the relative viability (NCI-H1993; first compound 20 µM) was 0.49, the relative viability (NCI-H1915; first compound 0.2 µM) was 0.475 and the relative viability (NCI-H1915; first compound 0.6325 µM) was 0.582. For the same molecule, the relative viability (NCI-H1915; first compound 6.325 µM) was 0.443, the relative viability (NCI-H1915; first compound 20 µM) was 0.578 and the relative viability (HCC-827; first compound 0.2 µM) was 0.694. It also gave a relative viability (HCC-827; first compound 0.6325 µM) of 0.668, a relative viability (HCC-827; first compound 2 µM) of 0.625 and a relative viability (HCC-827; first compound 6.325 µM) of 0.784. The relative viability (HCC-827; first compound 20 µM) was 0.748, the relative viability (PC-14; first compound 0.2 µM) was 1.01 and the relative viability (PC-14; first compound 0.6325 µM) was 0.779. For the same molecule, the relative viability (PC-14; first compound 2 µM) was 0.975, the relative viability (PC-14; first compound 6.325 µM) was 0.848 and the relative viability (PC-14; first compound 20 µM) was 0.0163. The relative viability (LCLC-97TM1; first compound 0.2 µM) was 0.306, the relative viability (LCLC-97TM1; first compound 0.6325 µM) was 0.554 and the relative viability (LCLC-97TM1; first compound 2 µM) was 0.582. The relative viability (LCLC-97TM1; first compound 6.325 µM) was 0.364, the relative viability (LCLC-97TM1; first compound 20 µM) was 0.438 and the relative viability (NCI-H23; first compound 0.2 µM) was 0.456. It also gave a relative viability (NCI-H23; first compound 0.6325 µM) of 0.509, a relative viability (NCI-H23; first compound 2 µM) of 0.511 and a relative viability (NCI-H23; first compound 6.325 µM) of 0.568. The relative viability (NCI-H23; first compound 20 µM) was 0.476, the relative viability (NCI-H661; first compound 0.2 µM) was 0.747 and the relative viability (NCI-H661; first compound 0.6325 µM) was 0.65. It also gave a relative viability (NCI-H661; first compound 2 µM) of 0.617, a relative viability (NCI-H661; first compound 6.325 µM) of 0.749 and a relative viability (NCI-H661; first compound 20 µM) of 0.622. For the same molecule, the relative viability (NCI-H1944; first compound 0.2 µM) was 0.408, the relative viability (NCI-H1944; first compound 0.6325 µM) was 0.359 and the relative viability (NCI-H1944; first compound 2 µM) was 0.3. It also gave a relative viability (NCI-H1944; first compound 6.325 µM) of 0.409, a relative viability (NCI-H1944; first compound 20 µM) of 0.393 and a relative viability (NCI-H460; first compound 0.2 µM) of 0.653. It also gave a relative viability (NCI-H460; first compound 0.6325 µM) of 0.624, a relative viability (NCI-H460; first compound 2 µM) of 0.487 and a relative viability (NCI-H460; first compound 6.325 µM) of 0.323. The relative viability (NCI-H460; first compound 20 µM) was 0.0164, the relative viability (SK-LU-1; first compound 0.2 µM) was 0.321 and the relative viability (SK-LU-1; first compound 0.6325 µM) was 0.375. The relative viability (SK-LU-1; first compound 2 µM) was 0.256, the relative viability (SK-LU-1; first compound 6.325 µM) was 0.338 and the relative viability (SK-LU-1; first compound 20 µM) was 0.0616. For the same molecule, the relative viability (EPLC-272H; first compound 2 µM) was 0.235, the relative viability (EPLC-272H; first compound 6.325 µM) was 0.27 and the relative viability (EPLC-272H; first compound 20 µM) was 0.0689.
